Measured values published in paper PMC6204601, “In Vivo Selectivity and Localization of Reactive Oxygen Species (ROS) Induction by Osmium Anticancer Complexes That Circumvent Platinum Resistance” (Journal of Medicinal Chemistry, 2018).

Key:
A2780 cancer cells [1] = test: ROS/superoxide detection by flow cytometry, A2780; conditions: A2780, 24 h, 1.0 × IC50 (pyocyanin positive control 0.1 mM); for % Population Q1 FL1-H- / FL2-H+: superoxide only; for % Population Q3 FL1-H+ / FL2-H-: total ROS only
Method: (§10) Reactive oxygen species (ROS) determination using flow cytometry. The generation of ROS and
(§11) superoxide in A2780 ovarian cancer cells was evaluated using the ROS/Superoxide detection kit (Enzo
(§12) Life Sciences) following the manufacturer’s protocol.
(§13) cells per well, and incubated for 24 h (310 K). After this time, cells were exposed to equipotent
The pellets were re-suspended in 500
(§14) μL PBS and stained with green fluorescent reagent for total ROS reading in the FL1-green channel (2
(§15) μL) and orange fluorescent reagent for superoxide reading in the FL2-red channel (2 μL). Positive
(§16) control samples were treated with pyocyanin (5 μL, 30 min). Single stained positive control samples
(§17) were used for compensation purposes. Data were obtained using a Becton Dickson FACScan Flow
(§18) Cytometer and processed using FlowJo V10 for Windows.

[2] = tested on: Singapore wild-type zebrafish; conditions: 1 or 2× LC50, 96 h, green ROS probe, confocal
Method: (§1) In vivo biological studies […]
(§2) wild-type zebrafish (SGWT) embryos (< 5 dpf). All animals were maintained in accordance with ASPA […]
(§3) maintained. Light cycle: 14 hours day, 10 hours night.
1 L breeding tank. Pairs were set up the previous evening. Males and females were separated by a divider. The divider was removed around 9am (dawn). Embryos were collected and placed into petri dishes with fresh egg water.
Confocal microscopy (zebrafish). […]
or positive control samples.

[3] = tested on: MRC5 human lung fibroblasts; test: Sulforhodamine B antiproliferative assay, MRC5; format: cell-based; conditions: 24 h drug exposure + 72 h recovery, SRB; non-cancer fibroblasts
Method: (§4) In vitro biological studies
(§5) Sulforhodamine B cell viability colorimetric assay.
(§6) by ICP-OES analysis for metal content).
(§7) 72 h recovery time (310 K).
(§8) using slowly-running tap water and air dried.
(§9) Data were processed using Microsoft Excel
IC50 values (concentrations at which […]
After this time, cells were […]

[4] = tested on: A549 lung carcinoma cells; test: Sulforhodamine B antiproliferative assay, A549; format: cell-based, human; conditions: 24 h drug exposure + 72 h recovery, SRB
[5] = tested on: HCT116Ox oxaliplatin-resistant colorectal carcinoma cells; test: Sulforhodamine B antiproliferative assay, HCT116Ox; format: cell-based, human; conditions: 24 h drug exposure + 72 h recovery, SRB, read-out: Antiproliferative activity (IC50) HCT116Ox Colon
[6] = tested on: HCT116p53-/- P53-knockout colorectal carcinoma cells; test: Sulforhodamine B antiproliferative assay, HCT116p53-/-; format: cell-based, human; conditions: 24 h drug exposure + 72 h recovery, SRB, read-out: Antiproliferative activity (IC50) HCT116p53-/- Colon
[7] = tested on: HCT116 colorectal carcinoma cells; test: Sulforhodamine B antiproliferative assay, HCT116; format: cell-based, human; conditions: 24 h drug exposure + 72 h recovery, SRB; read-out: Antiproliferative activity (IC50) HCT116 Colon
[8] = tested on: HCT116p21-/- P21-knockout colorectal carcinoma cells; test: Sulforhodamine B antiproliferative assay, HCT116p21-/-; format: cell-based, human; conditions: 24 h drug exposure + 72 h recovery, SRB, read-out: Antiproliferative activity (IC50) HCT116p21-/- Colon
[9] = tested on: AB wild-type zebrafish embryos; format: in vivo; conditions: 96 h exposure, read-out: LC50 (Danio rerio) AB-WT
[10] = tested on: A2780 ovarian carcinoma cells; test: Sulforhodamine B antiproliferative assay, A2780; format: cell-based, human; conditions: 24 h drug exposure + 72 h recovery in drug-free medium, SRB; read-out: Antiproliferative activity (IC50) A2780 Ovarian
A2780 cancer cells [11] = conditions: A2780, 20 μM verapamil, normalised Os
Method: as §4
Cell culture. All cell lines were obtained from the European Collection of Cell Cultures (ECACC). […]
supplemented with 10% foetal calf serum, 1% 2 mM glutamine and 1% penicillin/streptomycin.
HCT116, HCT1116Ox, HCT116p21-/- and HCT116p53-/-, all of colon origin, were grown in McCoy’s Modified 5A medium supplemented with 10% foetal calf serum, 1% 2 mM glutamine and 1% penicillin/streptomycin. HOF normal ovarian fibroblasts were grown in fibroblast growth medium supplemented with 2% foetal calf serum, 1% 2 mM penicillin/streptomycin and 1% fibroblast growth factor. Cells were grown as adherent monolayers in 75 cm2 culture flasks at 310 K in a 5% CO2 humidified atmosphere and passaged at regular intervals using trypsin-EDTA.
After this time, the cells were washed with PBS and supplied
Sulforhodamine B cell viability colorimetric assay. Briefly, 5000 cells were seeded in a 96-well plate […]
mM) were prepared in medium with 5% v/v DMSO (concentration was determined after drug exposure by ICP-OES analysis for metal content). […] Cell viability was determined using the Sulforhodamine B assay.1 Cells […]
50% cell death occurred) are reported as averages with calculated standard deviations. Experiments were performed in triplicate as part as two independent experiments, and statistics calculated using two-tailed t-test assuming unequal variances (Welch’s t-test). […]

[12] = tested on: A2780Cis cisplatin-resistant ovarian carcinoma cells; test: Sulforhodamine B antiproliferative assay, A2780Cis; format: cell-based, human; conditions: 24 h drug exposure + 72 h recovery, SRB
[13] = tested on: Singapore wild-type zebrafish embryos; format: in vivo, Danio rerio; conditions: for LC50: zebrafish embryos, 96 h exposure, read-out: LC50 (Danio rerio) SG-WT
Method: as §1, §2, §3
1 L breeding tank. Pairs were set up the previous evening. Males and females were separated by a divider. The divider was removed around 9am (dawn). Embryos were collected and placed into petri dishes with fresh egg water. […]

[14] = tested on: HOF human ovarian fibroblasts; test: Sulforhodamine B antiproliferative assay, HOF; format: cell-based; conditions: 24 h drug exposure + 72 h recovery, SRB; non-cancer fibroblasts
Method: as §4, §5, §6, §7, §8, §9

[15] = tested on: HOF human ovarian fibroblasts; test: ROS/superoxide detection by flow cytometry, HOF; conditions: 24 h, 1.0 × IC50 (pyocyanin positive control 0.1 mM); for % Population Q2 FL1-H+ / FL2-H+: ROS and superoxide; for % Population Q1 FL1-H- / FL2-H+: superoxide only; for % Population Q3 FL1-H+ / FL2-H-: total ROS only
Method: as §10, §11, §12, §13
The pellets were re-suspended in 500
as §14, §15, §16, §17, §18

[16] = tested on: Tubingen wild-type zebrafish embryos; test: Zebrafish embryo toxicity (FET) test, TU-WT; format: in vivo; conditions: 96 h exposure, read-out: LC50 (Danio rerio) TU-WT
[17] = tested on: HCT116 human colorectal cancer cells xenografts; conditions: cited from earlier work
[18] = CV vs Ag/AgCl, 100 mV/s, 10^–3 M, CH3CN; electrochemically reversible

| Compound | % Population Q4 FL1-H- / FL2-H- (A2780 cancer cells [1]) | % Population Q1 FL1-H- / FL2-H+ (A2780 cancer cells [1]) | % Population Q3 FL1-H+ / FL2-H- (A2780 cancer cells [1]) | ROS generated in vivo in zebrafish [2] | IC50 [3] | IC50 [4] | IC50 [5] | IC50 [6] | IC50 [7] | IC50 [8] | LC50 [9] | IC50 [10] | IC50 [12] | LC50 [13] | IC50 [14] | % Population Q4 FL1-H- / FL2-H- [15] | % Population Q2 FL1-H+ / FL2-H+ [15] | % Population Q1 FL1-H- / FL2-H+ [15] | % Population Q3 FL1-H+ / FL2-H- [15] | LC50 [16] | other results |
| --- | --- | --- | --- | --- | --- | --- | --- | --- | --- | --- | --- | --- | --- | --- | --- | --- | --- | --- | --- | --- | --- |
| Cc1ccc(C(C)C)cc1.Cc1ccc(S(=O)(=O)[N-]C(c2ccccc2)C([NH-])c2ccccc2)cc1.[Os+2] (stereo not shown) [Complex 1, [Os(p-cymene)(Ts-DPEN)]] | 2.4 ± 0.9% | 1.2 ± 0.2% | 0.3 ± 0.1% | elevated levels of ROS | 21.4 ± 0.7 µM | 21.1 ± 0.3 µM | 51 ± 2 µM | 62 ± 3 µM | 37 ± 1 µM | 106 ± 2 µM | 4.3 ± 0.7 µM | 15.5 ± 0.5 µM | 21.6 ± 0.2 µM | 2.4 ± 0.4 µM | 29.9 ± 0.5 µM | 7.3 ± 0.5% | 38 ± 1% | 9.1 ± 0.8% | 45.4 ± 0.7% | 2.6 ± 0.3 µM | % accumulation (recovery time) 48 h (A2780 cancer cells [11]): 30 ± 2%; % accumulation (recovery time) 72 h (A2780 cancer cells [11]): 17.8 ± 0.3% |
| CN(C)c1ccc(N=Nc2ccccn2)cc1.Cc1ccc(C(C)C)cc1.F[P-](F)(F)(F)(F)F.[I][Os+] [Complex 10, [Os(Azpy-NMe2)(p-cymene)I]PF6] | 0.41 ± 0.02% | 1.65 ± 0.09% | 2.47 ± 0.08% | elevated levels of ROS | 4.5 ± 0.3 µM | 1.1 ± 0.2 µM | 0.96 ± 0.05 µM | 1.1 ± 0.07 µM | 0.26 ± 0.03 µM | 1.64 ± 0.08 µM | 16.8 ± 0.8 µM | 0.15 ± 0.01 µM | 0.15 ± 0.01 µM | 24.3 ± 0.4 µM | 2.32 ± 0.01 µM | 3.9 ± 0.3% | 61 ± 1% | 11.3 ± 0.5% | 24.1 ± 0.9% | 17 ± 1 µM | Effect on growth of xenografts ([17]; HCT116 xenografts in mice): delay the growth of xenografts; Toxic side effects in xenograft-bearing mice ([17]; xenograft-bearing mice): few toxic side effects; First reduction step potential [18]: ca. −0.4 V; Fold less toxic toward zebrafish embryos compared to cisplatin ([13]; LC50 ratio vs cisplatin): 40 × |
